Source: PMC12483202, “Pharmacokinetic profile of oral firocoxib in the koala (Phascolarctos cinereus)” (PLOS One, 2025)
In brackets after ≈: the same amount, converted by molar mass. Where two headings read alike, the source gives them in different places.

Assays:
[1] = Repeated oral dosing (5 mg/kg every 12 h, six doses) plasma trough concentrations in koalas; format: in vivo; conditions: koala (Phascolarctos cinereus)
Method: At least 2 months after the initial single oral dose administration study, firocoxib was administered twice daily at a dose of 5 mg/kg orally (as described in the single dose administration) for three consecutive days with the last dose administered 60 h after first administration, with a total of six doses administered. Blood (2 mL) was collected once daily into lithium heparin tubes at […] after first firocoxib dosage (prior to the morning dose). The cap, extension tube and catheter were flushed with saline before and after each collection. The first 0.5 mL of blood was discarded to avoid dilution of samples with saline.
With the repeated oral dosing, the accumulation factor equation [18] was used to ascertain if there was any firocoxib accumulation between trough concentrations at 48 h versus 72 h:
Accumulationfactor=(1−e^−nkT)/(1−e^−kT)
Where n = the number of doses k = ke = elimination constant
τ = number of hours between dosing

[2] = set-up: method as in ref [4] of S9 Table; conditions: Rabbits (6); PO 3.74 -4.20 mg/kg; ref [4] of S9 Table; cited from earlier work
COX-2 = conditions: cited from earlier work
[3] = set-up: method as in ref [8] of S9 Table; conditions: Goats (10), ref [8] of S9 Table, cited from earlier work
[4] = cited from earlier work
[5] = tested on: ovariohysterectomised cats; set-up: method as in PMID 27515266; conditions: 3 mg/kg/day, cited from earlier work
[6] = set-up: method as in ref [7] of S9 Table; conditions: Calves (10); PO 0.5 mg/kg; ref [7] of S9 Table; cited from earlier work
[7] = female, in vivo, Plasma firocoxib concentration (trough)
[8] = male, in vivo, Plasma firocoxib concentration (trough)
[9] = Horses (6), PO 0.1 mg/kg, ref [1] of S9 Table
[10] = Horses (12), IV 0.1 mg/kg, ref [3] of S9 Table
[11] = Horses (12), PO 0.1 mg/kg, ref [3] of S9 Table

Which results are given for `CC1(C)OC(=O)C(OCC2CC2)=C1c1ccc(S(C)(=O)=O)cc1` [firocoxib]?
concentration at 24 h ([1]; both sexes, plasma, arithmetic mean, six koalas, 24 h, 5 mg/kg oral every 12 h, read-out: Firocoxib plasma trough concentration): 54.7 ng/mL; concentration at 48 h ([1]; both sexes, plasma, arithmetic mean, six koalas, 48 h, 5 mg/kg oral every 12 h, read-out: Firocoxib plasma trough concentration): 47.4 ng/mL; concentration at 72 h ([1]; both sexes, plasma, arithmetic mean, six koalas, 72 h (12 h after the last dose), 5 mg/kg oral every 12 h, read-out: Firocoxib plasma trough concentration): 85.5 ng/mL; concentration at 24 h ([1]; both sexes, plasma, harmonic mean, six koalas, 24 h, 5 mg/kg oral every 12 h, read-out: Firocoxib plasma trough concentration): 43.3 ng/mL; concentration at 48 h ([1]; both sexes, plasma, harmonic mean, six koalas, 48 h, 5 mg/kg oral every 12 h, read-out: Firocoxib plasma trough concentration): 33.2 ng/mL; concentration at 72 h ([1]; both sexes, plasma, harmonic mean, six koalas, 72 h (12 h after the last dose), 5 mg/kg oral every 12 h, read-out: Firocoxib plasma trough concentration): 68.8 ng/mL; concentration at 24 h ([1]; both sexes, plasma, median, six koalas, 24 h, 5 mg/kg oral every 12 h, read-out: Firocoxib plasma trough concentration): 58.3 ng/mL; concentration at 48 h ([1]; both sexes, plasma, median, six koalas, 48 h, 5 mg/kg oral every 12 h, read-out: Firocoxib plasma trough concentration): 52.9 ng/mL; concentration at 72 h ([1]; both sexes, plasma, median, six koalas, 72 h (12 h after the last dose), 5 mg/kg oral every 12 h, read-out: Firocoxib plasma trough concentration): 82.1 ng/mL; concentration at 24 h [1, 7]: 69.1 ng/mL; concentration at 48 h [1, 7]: 36.8 ng/mL; concentration at 72 h [1, 7]: 137 ng/mL; concentration at 24 h ([1]; female, plasma, harmonic mean, females, 24 h, 5 mg/kg oral every 12 h, read-out: Firocoxib trough plasma concentration): 75.5 ng/mL; concentration at 48 h ([1]; female, plasma, harmonic mean, females, 48 h, 5 mg/kg oral every 12 h, read-out: Firocoxib trough plasma concentration): 51.6 ng/mL; concentration at 72 h ([1]; female, plasma, harmonic mean, females, 72 h, 5 mg/kg oral every 12 h, read-out: Firocoxib trough plasma concentration): 118 ng/mL; concentration at 24 h ([1]; female, plasma, mean, females, 24 h, 5 mg/kg oral every 12 h, read-out: Firocoxib trough plasma concentration): 76.5 ng/mL; concentration at 48 h ([1]; female, plasma, mean, females, 48 h, 5 mg/kg oral every 12 h, read-out: Firocoxib trough plasma concentration): 55.5 ng/mL; concentration at 72 h ([1]; female, plasma, mean, females, 72 h, 5 mg/kg oral every 12 h, read-out: Firocoxib trough plasma concentration): 120 ng/mL; concentration at 24 h ([1]; female, plasma, median (range), females, 24 h, 5 mg/kg oral every 12 h, read-out: Firocoxib trough plasma concentration): 71.3 ng/mL; concentration at 48 h ([1]; female, plasma, median (range), females, 48 h, 5 mg/kg oral every 12 h, read-out: Firocoxib trough plasma concentration): 60.2 ng/mL; concentration at 72 h ([1]; female, plasma, median (range), females, 72 h, 5 mg/kg oral every 12 h, read-out: Firocoxib trough plasma concentration): 120 ng/mL; concentration at 24 h [1, 8]: 25.3 ng/mL; concentration at 72 h [1, 8]: 61.8 ng/mL; concentration at 24 h ([1]; male, plasma, arithmetic mean, males, 24 h, 5 mg/kg oral every 12 h, read-out: Firocoxib trough plasma concentration): 33 ng/mL; concentration at 48 h ([1]; male, plasma, arithmetic mean, males, 48 h, 5 mg/kg oral every 12 h, read-out: Firocoxib trough plasma concentration): 39.2 ng/mL; concentration at 72 h ([1]; male, plasma, arithmetic mean, males, 72 h, 5 mg/kg oral every 12 h, read-out: Firocoxib trough plasma concentration): 51.3 ng/mL; concentration at 24 h ([1]; male, plasma, harmonic mean, males, 24 h, 5 mg/kg oral every 12 h, read-out: Firocoxib trough plasma concentration): 30.3 ng/mL; concentration at 48 h ([1]; male, plasma, harmonic mean, males, 48 h, 5 mg/kg oral every 12 h, read-out: Firocoxib trough plasma concentration): 24.6 ng/mL; concentration at 72 h ([1]; male, plasma, harmonic mean, males, 72 h, 5 mg/kg oral every 12 h, read-out: Firocoxib trough plasma concentration): 48.5 ng/mL; concentration at 24 h ([1]; male, plasma, median (range), males, 24 h, 5 mg/kg oral every 12 h, read-out: Firocoxib trough plasma concentration): 26.1 ng/mL; concentration at 48 h ([1]; male, plasma, median (range), males, 48 h, 5 mg/kg oral every 12 h, read-out: Firocoxib trough plasma concentration): 48.2 ng/mL; concentration at 72 h ([1]; male, plasma, median (range), males, 72 h, 5 mg/kg oral every 12 h, read-out: Firocoxib trough plasma concentration): 56.2 ng/mL; Cmax [2]: 160 ng/mL; Tmax [2]: 3.81 h; t1/2 [2]: 9.12 h; IC80 (COX-2) (COX-2; horse whole blood, in vitro): 0.067 µg/mL (≈ 0.199 µM); plasma concentration required to inhibit 80% of in vitro COX-2 reactions (COX-2; horse, corrected from whole blood IC80): exceeding 103 ng/mL; COX-1:COX-2 inhibition ratio (COX-2; horses, whole blood): 643; t1/2 ([3]; IV 0.5 mg/kg): 26.41 h; Cmax ([3]; PO 0.5 mg/kg): 139 ng/mL; Tmax ([3]; PO 0.5 mg/kg): 0.77 h; t1/2 ([3]; PO 0.5 mg/kg): 21.51 h; Cmax [4, 9]: 58.0 ng/mL; Tmax [4, 9]: 3.2 h; t1/2 [4, 9]: 32.77 h; Cmax [4, 10]: 210 ng/mL; t1/2 [4, 10]: 34 h; Cmax [4, 11]: 75 ng/mL; Tmax [4, 11]: 3.9 h; t1/2 [4, 11]: 30 h; Absolute oral bioavailability ([4]; horses dosed at 0.1 mg/kg): 79%; Cl ([4]; horses): 0.617 mL/min/kg; Tmax (mean) ([4]; horses): 3.2 h; Vd ([4]; horses): 1.7 L/kg; plasma elimination half-life ([4]; horses): 32.8 h; Cmax ([4]; horses, oral 0.1 mg/kg): 58 ng/mL; postoperative analgesia ([5]; 1 h prior to induction of anaesthesia and at 24 and 48 h post-surgery): some analgesia; azotaemia ([5]; 72 h after surgery): two out of eight cats developed a reversible azotaemia; Cmax [6]: 127.9 ng/mL; t1/2 [6]: 18.8 h
